Assay results: PubChem BioAssay AID248 (DTP/NCI, 2004)
Several values for one entry are separate records, joined by “and”; a condition that tells them apart may be missing. Identical values can stand only once. Toxic doses and inconclusive results are not listed.

Tested on: L1210 leukemia ip in BDF1 mice, survival T/C
Experiment: NCI In Vivo Anticancer Drug Screen. Data for tumor model L1210 Leukemia (intraperitoneal) in B6D2F1 (BDF1) mice
Conditions: endpoint: mean survival time, higher = longer survival
Method in brief: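 Mice bearing the transplanted tumor received compound or vehicle. Survival of the treated group was divided by that of the vehicle-treated control group to give the ratio.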

[1] = dose: 6.25 mg/kg/injection, schedule: Q01DX009 (ip), vehicle: saline
[2] = dose: 12.5 mg/kg/injection, schedule: Q01DX009 (ip), vehicle: saline
[3] = dose: 25.0 mg/kg/injection, schedule: Q01DX009 (ip), vehicle: saline
[4] = dose: 25.0 mg/kg/injection, schedule: Q04DX003 (ip), vehicle: saline
[5] = dose: 100.0 mg/kg/injection, schedule: Q01DX001 (ip), vehicle: saline
[6] = dose: 200.0 mg/kg/injection, schedule: Q01DX001 (ip), vehicle: saline
[7] = dose: 400.0 mg/kg/injection, schedule: Q01DX001 (ip), vehicle: saline
[8] = dose: 75.0 mg/kg/injection, schedule: Q01DX001 (ip), vehicle: saline
[9] = dose: 100.0 mg/kg/injection, schedule: Q01DX009 (ip), vehicle: saline with Tween-80
[10] = dose: 100.0 mg/kg/injection, schedule: Q04DX003 (ip), vehicle: saline with Tween-80
[11] = dose: 200.0 mg/kg/injection, schedule: Q01DX009 (ip), vehicle: saline with Tween-80
[12] = dose: 200.0 mg/kg/injection, schedule: Q04DX003 (ip), vehicle: saline with Tween-80
[13] = dose: 400.0 mg/kg/injection, schedule: Q04DX003 (ip), vehicle: saline with Tween-80
[14] = dose: 50.0 mg/kg/injection, schedule: Q01DX009 (ip), vehicle: saline with Tween-80
[15] = dose: 100.0 mg/kg/injection, schedule: Q01DX009 (ip), vehicle: saline
[16] = dose: 100.0 mg/kg/injection, schedule: Q04DX003 (ip), vehicle: saline
[17] = dose: 200.0 mg/kg/injection, schedule: Q04DX003 (ip), vehicle: saline
[18] = dose: 100.0 mg/kg/injection, schedule: Q04DX003 (ip), vehicle: Klucel (hydroxypropylcellulose) (HPC)
[19] = dose: 200.0 mg/kg/injection, schedule: Q04DX003 (ip), vehicle: Klucel (hydroxypropylcellulose) (HPC)
[20] = dose: 400.0 mg/kg/injection, schedule: Q04DX003 (ip), vehicle: Klucel (hydroxypropylcellulose) (HPC)

For `c1ccc(C[n+]2cccc3ccccc32)cc1`, the T/C [1] was 100 % of control, the T/C (dose: 6.25 mg/kg/injection, schedule: Q04DX003 (ip), vehicle: saline) was 97 % of control and the T/C [2] was 101 % of control. The T/C (dose: 12.5 mg/kg/injection, schedule: Q04DX002 (ip), vehicle: saline) was 98 % of control, the T/C (dose: 12.5 mg/kg/injection, schedule: Q04DX003 (ip), vehicle: saline) was 106 % of control and the T/C [3] was 100 % of control. For the same molecule, the T/C (dose: 25.0 mg/kg/injection, schedule: Q04DX002 (ip), vehicle: saline) was 102 % of control, the T/C [4] was 101 % of control and the T/C (dose: 50.0 mg/kg/injection, schedule: Q04DX002 (ip), vehicle: saline) was 105 % of control.

In the case of `Cc1cnc(SCc2ccc(F)cc2)nc1N(C)C`, the T/C (dose: 100.0 mg/kg/injection, schedule: Q01DX Z (ip), vehicle: methylcellulose (MC)) is reported as 88 % of control.

With `O=[N+]([O-])c1ccc2nncn2c1` the T/C (dose: 50.0 mg/kg/injection, schedule: Q01DX001 (ip), vehicle: saline) was 91 % of control, the T/C [5] was 97 % of control and the T/C [6] was 103 % of control. The T/C [7] was 101 % of control.

`CCOC(=O)N(CCC(=O)OC(C)(C)C)CC(=O)OC(C)(C)C` was tested, and the T/C [8] was 92 % of control, the T/C (dose: 150.0 mg/kg/injection, schedule: Q01DX001 (ip), vehicle: saline) was 95 % of control and the T/C (dose: 300.0 mg/kg/injection, schedule: Q01DX001 (ip), vehicle: saline) was 101 % of control.

With `Cc1ccc(NC(=O)Oc2ccc([N+](=O)[O-])cc2)cc1S(=O)(=O)F` the T/C (dose: 100.0 mg/kg/injection, schedule: Q01DX001 (ip), vehicle: saline with Tween-80) was 100 % of control and 101 % of control, the T/C [9] was 98 % of control and 101 % of control and the T/C (dose: 100.0 mg/kg/injection, schedule: Q04DX002 (ip), vehicle: saline with Tween-80) was 94 % of control and 99 % of control. The T/C [10] was 98 % of control and 102 % of control, the T/C (dose: 200.0 mg/kg/injection, schedule: Q01DX001 (ip), vehicle: saline with Tween-80) was 97 % of control and 100 % of control and the T/C [11] was 103 % of control and 109 % of control. The T/C (dose: 200.0 mg/kg/injection, schedule: Q04DX002 (ip), vehicle: saline with Tween-80) was 100 % of control and 90 % of control, the T/C [12] was 94 % of control and 102 % of control and the T/C (dose: 400.0 mg/kg/injection, schedule: Q01DX001 (ip), vehicle: saline with Tween-80) was 104 % of control and 107 % of control. For the same molecule, the T/C (dose: 400.0 mg/kg/injection, schedule: Q04DX002 (ip), vehicle: saline with Tween-80) was 96 % of control and 101 % of control and the T/C [13] was 98 % of control.

`CCOC(=O)CCSC` was tested, and the T/C [14] was 100 % of control, the T/C [9] was 97 % of control and the T/C [10] was 93 % of control. The T/C [11] was 92 % of control and the T/C [12] was 96 % of control.

For `CN(Cc1ccccc1O)C1CCCCC1`, the T/C [8] was 95 % of control.

In the case of `CCCCC(=O)N1CCOCC1`, the T/C (dose: 100.0 mg/kg/injection, schedule: Q04DX002 (ip), vehicle: saline) is reported as 107 % of control, the T/C (dose: 200.0 mg/kg/injection, schedule: Q04DX002 (ip), vehicle: saline) is reported as 101 % of control and the T/C (dose: 400.0 mg/kg/injection, schedule: Q04DX002 (ip), vehicle: saline) is reported as 107 % of control.

`CN1CC(COC(=O)CCc2ccc(N(CCCl)CCCl)cc2)C=C2c3cccc4[nH]cc(c34)C[C@H]21` (some centres not stated) was tested, and the T/C (dose: 3.12 mg/kg/injection, schedule: Q01DX009 (ip), vehicle: saline) was 104 % of control, the T/C [1] was 108 % of control and the T/C [2] was 110 % of control and 114 % of control. The T/C [3] was 117 % of control, the T/C [4] was 93 % of control and 107 % of control and the T/C (dose: 50.0 mg/kg/injection, schedule: Q01DX009 (ip), vehicle: saline) was 117 % of control. For the same molecule, the T/C (dose: 50.0 mg/kg/injection, schedule: Q04DX003 (ip), vehicle: saline) was 109 % of control and 117 % of control, the T/C [15] was 91 % of control and the T/C [16] was 112 % of control. For the same molecule, the T/C [17] was 124 % of control.

In the case of `O=[N+]([O-])c1ccc2ncccc2c1`, the T/C [18] is reported as 106 % of control and the T/C [19] is reported as 101 % of control.

In the case of `CNC(=O)Nc1ccc(C(=O)O)cc1`, the T/C (dose: 100.0 mg/kg/injection, schedule: Q04DX002 (ip), vehicle: Klucel (hydroxypropylcellulose) (HPC)) is reported as 102 % of control, the T/C (dose: 200.0 mg/kg/injection, schedule: Q04DX002 (ip), vehicle: Klucel (hydroxypropylcellulose) (HPC)) is reported as 95 % of control and the T/C (dose: 400.0 mg/kg/injection, schedule: Q04DX002 (ip), vehicle: Klucel (hydroxypropylcellulose) (HPC)) is reported as 95 % of control.

For `O=C(O)C(CSCc1ccccc1)NSc1ccccc1[N+](=O)[O-]` (configuration not stated), the T/C (dose: 100.0 mg/kg/injection, schedule: Q01DX001 (ip), vehicle: Klucel (hydroxypropylcellulose) (HPC)) was 105 % of control, the T/C [16] was 97 % of control and the T/C (dose: 200.0 mg/kg/injection, schedule: Q01DX001 (ip), vehicle: Klucel (hydroxypropylcellulose) (HPC)) was 105 % of control. For the same molecule, the T/C [17] was 95 % of control, the T/C (dose: 400.0 mg/kg/injection, schedule: Q01DX001 (ip), vehicle: Klucel (hydroxypropylcellulose) (HPC)) was 101 % of control and the T/C (dose: 400.0 mg/kg/injection, schedule: Q04DX003 (ip), vehicle: saline) was 106 % of control.

For `O=C(NCCCl)Nc1ccc(O)cc1`, the T/C [15] was 101 % of control, the T/C [18] was 98 % of control and the T/C (dose: 200.0 mg/kg/injection, schedule: Q01DX009 (ip), vehicle: saline) was 105 % of control. For the same molecule, the T/C [19] was 94 % of control, the T/C (dose: 400.0 mg/kg/injection, schedule: Q01DX009 (ip), vehicle: saline) was 90 % of control and the T/C [20] was 100 % of control.

`CC1(C)C2CCC(CCOC(=O)COc3ccc(Cl)cc3)C1C2` (configuration not stated) was tested, and the T/C [18] was 98 % of control, the T/C [19] was 100 % of control and the T/C [20] was 100 % of control.

With `CCn1c(CC(O)(C(F)(F)F)C(F)(F)F)nc2ccccc21` the T/C [10] was 101 % of control, the T/C [12] was 98 % of control and the T/C [13] was 101 % of control.

For `CNC1C(=O)C2CCC(C2)C1c1ccccc1` (configuration not stated), the T/C [5] was 108 % of control, the T/C [6] was 100 % of control and the T/C [7] was 96 % of control.

With `NC(=O)C1(c2ccccc2)CCN(Cc2ccccc2)CC1` the T/C (dose: 25.0 mg/kg/injection, schedule: Q01DX009 (ip), vehicle: saline with Tween-80) was 100 % of control, the T/C [14] was 98 % of control and the T/C (dose: 50.0 mg/kg/injection, schedule: Q04DX003 (ip), vehicle: saline with Tween-80) was 95 % of control. For the same molecule, the T/C [9] was 94 % of control and the T/C [10] was 92 % of control.

For `O=NN(C(=O)NC1CCCCC1Cl)C1CCCCC1Cl` (configuration not stated), the T/C (dose: 8.0 mg/kg/injection, schedule: Q01DX001 (ip), vehicle: carboxymethylcellulose (CMC)) was 102 % of control, the T/C (dose: 12.0 mg/kg/injection, schedule: Q01DX001 (ip), vehicle: carboxymethylcellulose (CMC)) was 106 % of control and the T/C (dose: 18.0 mg/kg/injection, schedule: Q01DX001 (ip), vehicle: carboxymethylcellulose (CMC)) was 106 % of control. The T/C (dose: 26.0 mg/kg/injection, schedule: Q01DX001 (ip), vehicle: carboxymethylcellulose (CMC)) was 106 % of control, the T/C (dose: 40.0 mg/kg/injection, schedule: Q01DX001 (ip), vehicle: carboxymethylcellulose (CMC)) was 107 % of control and the T/C (dose: 60.0 mg/kg/injection, schedule: Q01DX001 (ip), vehicle: carboxymethylcellulose (CMC)) was 98 % of control. The T/C (dose: 93.0 mg/kg/injection, schedule: Q01DX001 (ip), vehicle: carboxymethylcellulose (CMC)) was 104 % of control, the T/C (dose: 187.0 mg/kg/injection, schedule: Q01DX001 (ip), vehicle: carboxymethylcellulose (CMC)) was 102 % of control and the T/C (dose: 375.0 mg/kg/injection, schedule: Q01DX001 (ip), vehicle: carboxymethylcellulose (CMC)) was 96 % of control.

With `Nc1nc(=S)c2[nH]c(N=Nc3ccc(S(=O)(=O)Nc4ccccn4)cc3)nc2[nH]1` the T/C (dose: 6.25 mg/kg/injection, schedule: Q01DX009 (ip), vehicle: Klucel (hydroxypropylcellulose) (HPC)) was 170 % of control, the T/C (dose: 25.0 mg/kg/injection, schedule: Q01DX009 (ip), vehicle: Klucel (hydroxypropylcellulose) (HPC)) was 112 % of control and the T/C (dose: 50.0 mg/kg/injection, schedule: Q01DX009 (ip), vehicle: Klucel (hydroxypropylcellulose) (HPC)) was 100 % of control and 117 % of control and 124 % of control. The T/C (dose: 50.0 mg/kg/injection, schedule: Q04DX003 (ip), vehicle: Klucel (hydroxypropylcellulose) (HPC)) was 106 % of control, the T/C [5] was 98 % of control and the T/C (dose: 100.0 mg/kg/injection, schedule: Q01DX009 (ip), vehicle: Klucel (hydroxypropylcellulose) (HPC)) was 101 % of control. The T/C [18] was 117 % of control, the T/C [6] was 104 % of control and the T/C (dose: 200.0 mg/kg/injection, schedule: Q01DX009 (ip), vehicle: Klucel (hydroxypropylcellulose) (HPC)) was 100 % of control. For the same molecule, the T/C [7] was 104 % of control.
